Experiments:
[1] = system: Nerve cells of the cerebral cortex; experiment: Pharmacological test 1: neurite sprouting (NS) of cultured fetal rat cerebral cortex nerve cells, phase contrast microscopy versus control; type: cell-based; design: key: ++: extremely strong in comparison with the control; +: strong in comparison with the control; ±: same as the control; -: inferior to the control; details: Dose 10^-6 (mole); 10 days after initiation of culture
From the text: Nerve cells of the cerebral cortex were removed aseptically from a fetal rat (17 days-old) and cultured according to a Asou's method [Asou, H. Brain Res., 332; pages 355-357 (1985)]. After the meninx, blood vessel, etc. were removed from the cerebral hemisphere, they were put through a stainless steel mesh (pore size: 140μm). Then, the isolated cells were floated on a culture medium (Eagle's basal medium containing 10% fetal bovine serum and glucose of 1 g/l) and 1.5×10^6 cells were respectively seeded on a dish (diameter: 35 mm) coated with poly-L-lysine to initiate the culture (37° C., 3% CO2). After 24 hours, the culture medium was replaced by a culture medium containing a test compound and cultured for additional 9 days.
10 Days after initiation of the culture, neurite sprouting (NS) was evaluated under phase contrast microscopy by comparing with the control group.

[2] = system: hyperoxidation reaction of lipid (microsome fraction); experiment: Pharmacological test 3: antioxidation action, hyperoxidation reaction of lipid due to ascorbic acid induction in liver microsome fraction (TBA value); type: biochemical, Wister rat; details: 37° C., 15 minutes; 200 μM ascorbic acid, 20 μM ferrous sulfate; read-out: IC50 (antioxidation, 50% inhibition concentration)
Procedure: (The measurement of antioxidation action)
The antioxidation action was measured using the hyperoxidation reaction of lipid due to ascorbic acid induction [Shimada, O. and Yasuda, H. BBA489, 163-172 (1977)].
Microsome fraction was obtained from a lever of Wister rat by a Kato's method [J. Biochem., 59, 574 (1966)]. This fraction was added to a 60 mM potassium phosphate buffer solution (containing 45 mM potassium chloride, 200 μM ascorbic acid and 20 μM ferrous sulfate) in an amount of 1 mg/ml and the test compound (0.1% dimethyl sulfoxide) was added, and the mixture was incubated at 37° C. for 15 minutes. The same amount of 10% trichloroacetic acid was added and the resultant was centrifuged. A portion of the supernatant was collected and the amount of malondialdehyde due to thiobarbituric acid (TBA value) was measured [Klaassen, C. D. and Plaa, G. L. Biochem. Pharmacol., 18: 2019 (1969)]. The inhibition ratio was calculated by the following formula:
Inhibition ratio={1-(TBA value of specimen)/(TBA value of […]

[3] = system: mouse dorsal root ganglion cells; experiment: Pharmacological Test 2: neurite outgrowth in primary culture of mouse dorsal root ganglion cells; type: cell-based, mouse (C57BL/6); design: key: +: positive; ±: false positive; -: negative; details: Dose 10^-7 (mole); 7 days culture
Procedure: (The measurement of neurite outgrowth in primary culture of mouse dorsal root ganglion cells)
Preparation of cells was conducted according to a method of Horie et al. [H. Horie., FEBS, 296, 23 (1990)]. That is, C57BL/6 male mice aged 10 to 15 weeks were used. They were bleeded to death under ether anesthetization and the backbone from cervical vertebra to sacral vertebra was removed. The capsule of dorsal root ganglion of which ventral root and dorsal root had been cut was stripped in a Ham F12 medium (Flow laboratories) and then ganglia were treated with 0.25% collagenase (Worthington Biochemical Corporation) at 37° C. for 90 minutes. The medium was replaced by a Hank's physiological buffer solution containing no calcium and magnesium and cells were treated with 0.25% trypsin (Flow Laboratories) at room temperature for 20 minutes. A trypsin inhibitor (Sigma, 100 μg/ml) was added to terminate the enzyme reaction and trituration was conducted 20 times using a tapered Pasteur pipette. The medium was replaced again by the Ham F12 medium and cells were put through a nylon mesh (150 μm) to remove a cell mass which had not been separated. Cells were suspended in the Ham F12 medium containing a N1 additive [Bottenstein, J. E., Exp. Cell. Res., 125, 183 (1980)] (kanamycin of 60 μg/ml added).
A poly-1-lysine-coating cell disc as a culture medium which had been subjected to 10 μg/ml laminin (Koken Cell Gen) coating treatment at 37° C. for 3 hours was placed on a 24 well dish and nerve cells (5000 to 10000 cells/dish) were seeded. The test compound (concentration: 0.01 mol/l) was dissolved in dimethyl sulfoxide and diluted with a phosphate buffer solution to adjust to a final concentration, and then added to a culture solution. Cells were cultured in 5% CO2 -95% air phase at 37° C. for 7 days.
For the measurement of neurite outgrowth, the cell disc was washed with a phosphate buffer solution 7 days after initiation of the culture and immobilized with 4% paraformaldehyde at 4° C. for 24 hours, and then immune staining was conducted with Vecstatin ABC kit (Vector) using a neurofilament antibody (200 kD, manufactured by Boehringer Mannheim GmbH). The periphery of the cell disc was restrictively observed under microscopy, and the amount of neurofilament (whole length per well) was evaluated by comparing with the control well according to the following criteria: positive (+), false positive (±) and negative (-).

C-GMP-PDE (type V) = molecular target: T1, C-GMP-PDE (type V) (Homo sapiens, UniProt O76074); experiment: Pharmacological test 4: C-GMP-PDE (type V) inhibition action; type: biochemical; details: FI fraction from human blood platelet
T1 construct: from tissue; host or cells: human blood platelets (healthy adult), DEAE-cellulose fraction FI
Procedure: (C-GMP-PDE (type V) inhibition action)
The separation and purification of PDE from a human blood platelet was conducted according to a method of Hidaka et al. [Hidaka, H. and Asano, I., Biochem. Biophys. Acta 429, 485-497 (1976)]. That is, a blood platelet derived from a healthy adult was washed with water, floated with a Tris buffer solution and centrifuged. Then, the supernatant thereof was applied to DEAE-cellulose and separated into three fractions, FI, FII and FIII due to concentration gradient of sodium acetate. By using FI having high affinity to C-GMP, the inhibition action of the test compound was examined. The influence of the drug on PDE was represented by the inhibition ratio to PDE activity in the absence of the drug.

| IC50 [2] | IC50 (C-GMP-PDE (type V)) | Compound | neurite sprouting (NS) [1] | Neurite outgrowth action [3] |
| --- | --- | --- | --- | --- |
| 200 nM | 3400 nM | C=CCc1cc2c(cc1O)C(=O)c1c-2ccc(O)c1CC=C [Example 47, 1,6-Diallyl-2,7-dihydroxyfluorenone] | + | + |
| 2100 nM | 2200 nM | C=CCc1cc2c(cc1O)C(=O)c1cc(O)c(CC=C)cc1-2 [Example 49] | + | + |
